Source: patent publication US20260027096A1, “PHD INHIBITORS” (Oxford University Innovation Limited, priority 2023, published 2026)

Legend:
[1] = Steady-state haematopoiesis analyses in C57B16 mice; assay type: in vivo, mouse; details: 30 mg/kg i.p. twice daily for 14 days
Experimental: For steady-state analyses, 8-to 10-week-old mixed gender C57B16 mice were injected intraperitoneally twice daily for 14 days with 30 mg/kg IOX5 or vehicle control. Mice were bled before and after treatment, and culled 12 hrs after the final dosing.
Given that Dap has been deemed safe in murine and human studies^37,72,78, the impact of IOX5 (68, example 46) on normal hematopoiesis was then examined.

[2] = tested on: BNIP3 protein in THP-1 cells
[3] = tested on: Meis1/Hoxa9-transformed AML cells lacking both Hif1α and Hif2α and control cells; assay: Proliferation of control and Hif1α/Hif2α-deficient Meis1/Hoxa9 AML cells; assay type: cell-based, mouse; details: 50 μM
Source text: To investigate whether HIF-α mediates the anti-leukaemic effects of PHD inhibition, Meis1/Hoxa9-transformed AML cells lacking both Hif1α and Hif2α and control cells were employed (Vukovic et al., 2015).

[4] = tested on: HIF-2α in MOLM13, OCI-AML3, MV411 and THP-1 cells; assay: Western blot of HIF-2α in human AML cell lines; assay type: cell-based; details: 48 hrs
Experimental: Equipped with currently available PHD inhibitors and newly generated IOX5 (68, example 46), the impact of pharmacological PHD inhibition on AML cells was assessed. […] Thus, while PHD inhibition consistently stabilises HIF-1α protein across all tested AML cell lines, HIF-2α stabilisation is variable and cell line-specific.

[5] = tested on: THP-1 cells in NBSGW recipient mice; assay: THP-1 xenotransplantation in NBSGW mice; assay type: in vivo; details: 30 mg/kg i.p. twice daily for 21 days
Source text: (A) 100,000 THP-1 cells were transplanted into NBSGW recipient mice. […] (B-C) Percentage of human CD45+CD33+ and human CD45+CD14+ cells in the BM and spleen, respectively (n=4-5). (D) 100,000 OCI-AML3 cells were transplanted into NBSGW recipient mice. […] (E) Percentage of human CD45+CD33+CD14+ cells in the liver, BM and PB, respectively (n=3-7). (F) 2,000 LSK cells from iMLL-AF9;Control mice were sorted and transplanted into irradiated recipient mice. […] (H) LDA in secondary recipients transplanted with indicated doses of CD45.2+BM cells from primary recipients (n=9-10 per dose). (I) Plot showing Poisson statistical analysis. Circles represent the percentages of negative mice for each cell dose, triangles represent any data values with zero negative responses. Solid lines indicate the best-fit linear model, and dotted lines represent 95% CIs. LSC frequencies were calculated using the ELDA software 121. (J) Steady-state analyses of 8-to 10-week-old C57B16 mice treated with IOX5 or vehicle control 2× daily via i.p. injection for 14 days (n=5-7). (K) PB counts (n=6). (L) Total BM cellularity (n=5-9). (M) Total numbers of HSC, MPP, HPC-1 and HPC-2 populations (n=5-7). Data represent mean±SEM; * p<0.05; ** p<0.01; *** p<0.001; **** p<0.0001.
100,000 THP-1 cells, 100,000 OCI-AM3 cells or 100,000 MV411 cells (for combination experiments) were tail vein injected into non-irradiated 10-to 12-week-old mixed gender NBSGW mice and began drug treatment 14 days after transplantation. […] Mice were culled 5 weeks after transplantation.
Next, it was examined whether IOX (68, example 46)5 has a therapeutic impact on MLL-AF9-independent AML. […] Therefore, IOX5 (68, example 46) compromises both MLL-rearranged and non-MLL AML in vivo.

[6] = tested on: murine iMLL-AF9 LSK cells in DOX-treated recipient mice; assay: iMLL-AF9 LSK cell transplantation AML model; assay type: in vivo, mouse; details: vs vehicle
Source text: (A) 100,000 THP-1 cells were transplanted into NBSGW recipient mice. […] (B-C) Percentage of human CD45+CD33+ and human CD45+CD14+ cells in the BM and spleen, respectively (n=4-5). (D) 100,000 OCI-AML3 cells were transplanted into NBSGW recipient mice. […] (E) Percentage of human CD45+CD33+CD14+ cells in the liver, BM and PB, respectively (n=3-7). (F) 2,000 LSK cells from iMLL-AF9;Control mice were sorted and transplanted into irradiated recipient mice. […] (H) LDA in secondary recipients transplanted with indicated doses of CD45.2+BM cells from primary recipients (n=9-10 per dose). (I) Plot showing Poisson statistical analysis. […] LSC frequencies were calculated using the ELDA software 121. […]
For primary transplantations of leukemic cells, 100,000 Meis1/Hoxa9-transduced c-Kit^+ cells or 2,000 iMLL-AF9 Lin Sca-1^+c-Kit^+ (LSK) cells were transplanted into lethally irradiated CD45.1^+/CD45.2^+ recipient mice (together with 200,000 unfractionated support CD45.1^+ wild-type BM cells). All recipient were culled upon reaching their humane endpoint as recorded in survival curves.
For secondary transplantations of leukaemic cells, 50,000 cells harvested from primary recipients were transplanted into lethally irradiated CD45.1+/CD45.2+recipient mice (together with 200,000 unfractionated support CD45.1+wild-type BM cells). […] LSC frequency was calculated using ELDA software^121. […]

[7] = tested on: human multiple myeloma cell lines; assay: Apoptosis of multiple myeloma cell lines; assay type: cell-based; details: 50 μM, versus the control
Experimental: Apoptosis of multiple human MM cell lines derived from different patients (AWO^WT, H292, KMS12, RPMI, U266 and MM.1S) treated with vehicle control, 50 μM Daprodustat (2). Data represent mean±SEM; * p<0.05; ** p<0.01, *** p<0.001.
Viable cells were counted by trypan blue exclusion at the indicated time points. To analyse cells undergoing apoptosis, cells were suspended in binding buffer containing PE-conjugated Annexin-V or FITC-conjugated Annexin-V, and either PI or DAPI.

Structure (SMILES)	HSPC compartment [1]	differentiated PB, BM or spleen compartments [1]	erythropoiesis [1]	BNIP3 protein (western blot) [2]	proliferation of control vs Hif1α/Hif2α-deficient cells [3]	HIF-2α protein level (western blot) ([4]; MOLM13 and MV411 cells)	HIF-2α protein level (western blot) ([4]; OCI-AML3 and THP-1 cells)	leukaemic burden [5]	survival of leukaemic mice ([6]; i.p. twice daily for 14 days)	LSC frequency (limiting dilution assay) ([6]; secondary recipients)	apoptosis [7]	tolerability of treatment [5]
O=C(NCC1CCC(C(F)(F)F)CC1)c1c[nH]c(-n2cccn2)cc1=O (stereo not shown) [IOX5]	no significant defects in the HSPC compartment	no detrimental impact on the differentiated PB, BM or spleen compartments	enhanced erythropoiesis	strongly upregulated BNIP3 protein	control AML cells manifest substantially reduced proliferation, while Hif½αDKO cells are refractory	did not induce any HIF-2α stabilisation	stabilised HIF-2α protein levels	significantly reduced leukaemic burden	significantly increased survival of leukaemic mice	significantly decreased LSC frequency	–	–
O=C(O)CNC(=O)c1c(O)n(C2CCCCC2)c(=O)n(C2CCCCC2)c1=O [Daprodustat, daprodustat, reference compound]	–	–	–	–	–	–	–	significantly reduced leukaemic burden	–	–	significant apoptosis	well tolerated
